According to ChEMBL document CHEMBL1127997, “Synthesis of new thiazinoindole derivatives and their evaluation as inhibitors of human leukocyte elastase and other related serine proteases” (Bioorg Med Chem Lett, 1994):

Columns and labels:
[1] = molecular target: T1, Neutrophil elastase (Homo sapiens, UniProt P08246); assay: Compound was tested for inhibition of human leukocyte Elastase at 23 uM concentration from human polymorphonuclear leukocytes
T1 sequence (P08246 whole entry): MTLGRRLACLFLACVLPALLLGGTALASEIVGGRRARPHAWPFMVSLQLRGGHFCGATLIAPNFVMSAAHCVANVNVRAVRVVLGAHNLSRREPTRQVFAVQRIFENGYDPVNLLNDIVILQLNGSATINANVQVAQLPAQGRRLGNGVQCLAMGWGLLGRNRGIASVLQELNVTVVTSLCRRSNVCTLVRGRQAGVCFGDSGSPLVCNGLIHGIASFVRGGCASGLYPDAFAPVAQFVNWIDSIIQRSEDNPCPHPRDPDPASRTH

[2] = molecular target: T2, Cathepsin G (Homo sapiens) (UniProt P08311); assay: Compound was tested for inhibitory activity against human Cathepsin G; details: concentration not given here
T2 sequence (whole entry): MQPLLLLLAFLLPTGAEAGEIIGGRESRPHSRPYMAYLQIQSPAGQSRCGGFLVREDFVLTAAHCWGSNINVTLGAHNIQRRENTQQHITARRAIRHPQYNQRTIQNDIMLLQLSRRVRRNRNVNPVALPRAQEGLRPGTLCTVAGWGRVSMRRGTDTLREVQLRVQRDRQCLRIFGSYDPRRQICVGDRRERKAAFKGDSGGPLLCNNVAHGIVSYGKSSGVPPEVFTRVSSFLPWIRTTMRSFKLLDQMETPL

[3] = molecular target: T1, Neutrophil elastase; assay: Compound was tested for inhibition of human leukocyte Elastase at 64 uM concentration from human polymorphonuclear leukocytes
[4] = molecular target: Chymotrypsinogen A (Bos taurus) (UniProt P00766); assay: Compound was tested for inhibitory activity against […] alpha-chymotrypsin; details: concentration not given here
[5] = molecular target: T1, Neutrophil elastase; assay: Compound was tested for inhibition of human leukocyte Elastase at 13 uM concentration from human polymorphonuclear leukocytes
[6] = molecular target: T1, Neutrophil elastase; assay: Compound was tested for inhibition of human leukocyte Elastase from human polymorphonuclear leukocytes; not inhibitory at the limit of solubility
[7] = molecular target: T1, Neutrophil elastase; assay: Compound was tested for inhibition of human leukocyte Elastase at 16 uM concentration from human polymorphonuclear leukocytes
[8] = molecular target: T1, Neutrophil elastase; assay: Compound was tested for inhibition of human leukocyte Elastase at 32 uM concentration from human polymorphonuclear leukocytes
[9] = molecular target: T1, Neutrophil elastase; assay: Compound was tested for inhibition of human leukocyte Elastase at 15 uM concentration from human polymorphonuclear leukocytes
[10] = molecular target: T1, Neutrophil elastase; assay: Compound was tested for inhibition of human leukocyte Elastase at 51 uM concentration from human polymorphonuclear leukocytes

Oc1sc(Nc2ccc(Cl)cc2)nc2c3ccccc3nc1-2
Ki [1]: 29 µM

Oc1sc(Nc2ccccc2)nc2c3ccccc3nc1-2
inhibition [2]: 11.1% | Ki [3]: 43 µM | inhibition [4]: 13.3%

Oc1sc(Nc2ccc(Br)cc2)nc2c3ccccc3nc1-2
Ki [5]: ≥ 30 µM

CCCNc1nc2c3ccccc3nc-2c(O)s1
Ki [6]: No inhibition

Oc1sc(Nc2cccc(F)c2)nc2c3ccccc3nc1-2
Ki [7]: ≥ 72 µM

CNc1nc2c3ccccc3nc-2c(O)s1
Ki [6]: No inhibition

Oc1sc(Nc2cccc(C(F)(F)F)c2)nc2c3ccccc3nc1-2
inhibition [2]: 5.3% | inhibition [4]: 34.2% | Ki [5]: ≥ 30 µM

Oc1sc(Nc2ccccc2F)nc2c3ccccc3nc1-2
Ki [8]: ≥ 88 µM

CCNc1nc2c3ccccc3nc-2c(O)s1
Ki [6]: No inhibition

O=[N+]([O-])c1ccc(Nc2nc3c4ccccc4nc-3c(O)s2)cc1
Ki [9]: ≥ 45 µM

Cc1ccc(Nc2nc3c4ccccc4nc-3c(O)s2)cc1
Ki [7]: ≥ 78 µM

Oc1sc(Nc2ccc(F)cc2)nc2c3ccccc3nc1-2
Ki [10]: ≥ 104 µM
